In ChEMBL document CHEMBL1201862, “PubChem BioAssay data set” (2004):
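Briefly, cells in 96-well plates were exposed to five compound concentrations for 48 h, and endpoints were estimated by linear interpolation. The concentration for 50% growth inhibition is given as GI50.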 Activity calls are given as the source filed them. No stated cut-off is given here; in the data, active = GI50 up to about 1.1 µM and inactive = higher.

Key:
Assay in all cases: DTP human tumour cell line panel, 48 h
[1] = system: MOLT-4
[2] = system: T47D
[3] = system: SF-539
[4] = system: UO-31
[5] = system: EKVX
[6] = system: MCF7
[7] = system: SF-268
[8] = system: SNB-19
[9] = system: SK-MEL-5
[10] = system: HT-29
[11] = system: OVCAR-8
[12] = system: HOP-92
[13] = system: HCC 2998
[14] = system: CCRF-CEM
[15] = system: BT-549
[16] = system: HCT-15
[17] = system: SN12C
[18] = system: OVCAR-3
[19] = system: NCI-H23
[20] = system: M14
[21] = system: UACC-62
[22] = system: CAKI-1
[23] = system: UACC-257
[24] = system: PC-3
[25] = system: DU-145
[26] = system: TK-10
[27] = system: NCI-H226
[28] = system: Malme-3M
[29] = system: HCT-116
[30] = system: SK-MEL-28
[31] = system: NCI/ADR-RES
[32] = system: SF-295
[33] = system: U-251
[34] = system: COLO 205
[35] = system: A549
[36] = system: KM12
[37] = system: OVCAR-4
[38] = system: ACHN
[39] = system: HOP-62
[40] = system: SR
[41] = system: NCI-H522
[42] = system: SW-620
[43] = system: K562
[44] = system: MDA-MB-435
[45] = system: MDA-N
[46] = system: SK-MEL-2
[47] = system: RXF 393
[48] = system: 786-0
[49] = system: IGROV-1
[50] = system: A498
[51] = system: NCI-H460
[52] = system: MDA-MB-231
[53] = system: SK-OV-3
[54] = system: HL-60
[55] = system: SNB-75
[56] = system: Hs-578T
[57] = system: OVCAR-5
[58] = system: RPMI-8226
[59] = system: LOX IMVI

In the case of `COC(=O)C1([C@@H]2C[C@@H](O)[C@]3(C)CC/C=C(\C)CCC[C@H](C)[C@H](O)[C@@H]2O3)CC1`, the GI50 [1] is reported as 26.5 µM (inactive), the GI50 [2] is reported as 46.6 µM (inactive) and the GI50 [3] is reported as 91 µM (inactive). The GI50 [4] was 23.8 µM (inactive), the GI50 [5] was 81.7 µM (inactive) and the GI50 [6] was 41.9 µM (inactive). The GI50 [7] was 64.7 µM (inactive), the GI50 [8] was 46.7 µM (inactive) and the GI50 [9] was 39.4 µM (inactive). For the same molecule, the GI50 [10] was 42.5 µM (inactive), the GI50 [11] was 88.9 µM (inactive) and the GI50 [12] was 96.4 µM (inactive). For the same molecule, the GI50 [13] was 63.1 µM (inactive), the GI50 [14] was > 100 µM (inactive) and the GI50 [15] was 53.7 µM (inactive). The GI50 [16] was 34.9 µM, the GI50 [17] was > 100 µM (inactive) and the GI50 [18] was 51.4 µM (inactive). The GI50 [19] was 50.4 µM (inactive), the GI50 [20] was 53.3 µM (inactive) and the GI50 [21] was 66.8 µM (inactive). For the same molecule, the GI50 [22] was > 100 µM (inactive), the GI50 [23] was 56.1 µM (inactive) and the GI50 [24] was 31.8 µM (inactive). For the same molecule, the GI50 [25] was 66.8 µM (inactive), the GI50 [26] was 57.7 µM (inactive) and the GI50 [27] was 27.2 µM (inactive). The GI50 [28] was > 100 µM (inactive), the GI50 [29] was 51.2 µM (inactive) and the GI50 [30] was > 100 µM (inactive). The GI50 [31] was 39.4 µM (inactive), the GI50 [32] was 43.1 µM (inactive) and the GI50 [33] was 71.9 µM (inactive). For the same molecule, the GI50 [34] was 57 µM (inactive), the GI50 [35] was 33.9 µM (inactive) and the GI50 [36] was 60.4 µM (inactive). The GI50 [37] was 45.9 µM (inactive), the GI50 [38] was 24.8 µM (inactive) and the GI50 [39] was 76.4 µM (inactive). For the same molecule, the GI50 [40] was 39.4 µM (inactive), the GI50 [41] was 38.5 µM (inactive) and the GI50 [42] was 95.9 µM (inactive). For the same molecule, the GI50 [43] was 34.8 µM (inactive), the GI50 [44] was 77.6 µM (inactive) and the GI50 [45] was 72.3 µM (inactive). For the same molecule, the GI50 [46] was 73.3 µM (inactive), the GI50 [47] was 52 µM (inactive) and the GI50 [48] was 92.3 µM (inactive). For the same molecule, the GI50 [49] was 37.3 µM (inactive), the GI50 [50] was > 100 µM (inactive) and the GI50 [51] was 32.7 µM (inactive). The GI50 [52] was 90.2 µM (inactive), the GI50 [53] was > 100 µM (inactive) and the GI50 [54] was > 100 µM (inactive). The GI50 [55] was 0.286 µM (active), the GI50 [56] was 63.2 µM (inactive) and the GI50 [57] was 80.5 µM (inactive). The GI50 [58] was 50.7 µM (inactive) and the GI50 [59] was 61.4 µM (inactive).
